Numbered stars: 1 amine (or outer) side, 2 acyl side, 3 side chain; on linkers, the order of the positions; unused ones are H or OH. Square brackets hold non-standard residues; d marks the D form. Peptide text beside a SMILES is read from it. Nva(5-(4-Bn-piperidin-1-yl)) = N[C@@H](CCCN1CCC(Cc2ccccc2)CC1)C(=O)O; X2 = O=C1[C@@H](N[*:1])Cc2ccccc2CN1CCCC(=O)[*:2]; X1 = O=C1[C@@H](N[*:1])Cc2ccccc2CN1CCC(=O)[*:2]; Tic(7-OH) = O=C(O)[C@@H]1Cc2ccc(O)cc2CN1; Dmt = Cc1cc(O)cc(C)c1C[C@H](N)C(=O)O; d(hArg) = N=C(N)NCCCC[C@@H](N)C(=O)O; Nlys = NCCCCNCC(=O)O; βAla = NCCC(=O)O; Sar = CNCC(=O)O
Tests used:
Format in all cases: functional, cell-based
Mu-type opioid receptor [1] = molecular target: T1, Mu-type opioid receptor (Homo sapiens, UniProt P35372); test: Agonist activity at human MOP expressed in HEK293 cells coexpressing GloSensor-20F assessed as inhibition of forskolin-induced cAMP accumulation relative to control
T1 sequence (P35372 whole entry): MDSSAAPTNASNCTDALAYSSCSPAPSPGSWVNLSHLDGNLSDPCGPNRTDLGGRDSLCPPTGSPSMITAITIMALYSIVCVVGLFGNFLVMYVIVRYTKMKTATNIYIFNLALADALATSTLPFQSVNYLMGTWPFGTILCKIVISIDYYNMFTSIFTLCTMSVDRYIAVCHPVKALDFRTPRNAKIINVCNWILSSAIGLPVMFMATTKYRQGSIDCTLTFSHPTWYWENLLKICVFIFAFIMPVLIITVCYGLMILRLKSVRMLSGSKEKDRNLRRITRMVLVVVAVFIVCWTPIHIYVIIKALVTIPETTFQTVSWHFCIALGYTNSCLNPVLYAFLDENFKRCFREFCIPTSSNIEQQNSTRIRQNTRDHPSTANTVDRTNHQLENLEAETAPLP

Mu-type opioid receptor [2] = molecular target: T1, Mu-type opioid receptor; test: Agonist activity at human Rluc8-tagged MOP expressed in HEK293 cells coexpressing eYFP-tagged beta-arrestin-2 assessed as beta-arrestin-2 recruitment incubated for 5 mins by luminometer analysis relative to control
Mu-type opioid receptor [3] = molecular target: T1, Mu-type opioid receptor; test: Agonist activity at human Rluc8-tagged MOP expressed in HEK293 cells coexpressing eYFP-tagged beta-arrestin-2 assessed as beta-arrestin-2 recruitment incubated for 5 mins by luminometer analysis
Mu-type opioid receptor [4] = molecular target: T1, Mu-type opioid receptor; test: Agonist activity at human MOP expressed in HEK293 cells coexpressing GloSensor-20F assessed as inhibition of forskolin-induced cAMP accumulation

Row | SMILES | Emax (Mu-type opioid receptor [1]; filed as agonist) [%] | Emax (Mu-type opioid receptor [2]; filed as agonist) [%] | EC50 (Mu-type opioid receptor [3]; read-out: EC50) [nM] | also measured
1 | Cc1cc(O)cc(C)c1C[C@H](N)C(=O)N[C@H](CCCNC(=N)N)C(=O)N[C@H]1Cc2ccccc2CN(CCC(=O)N[C@@H](CCCN2CCC(Cc3ccccc3)CC2)C(=O)N[C@H](C(N)=O)C(C)C)C1=O (H-[Dmt][dR][X1][Nva(5-(4-Bn-piperidin-1-yl))]V-NH2) | 124 | 52 | – | –
2 | Cc1cc(O)cc(C)c1C[C@H](N)C(=O)N[C@H](CCCNC(=N)N)C(=O)N[C@H]1Cc2ccccc2CN(CC(=O)N[C@@H](CCCN2CCC(Cc3ccccc3)CC2)C(=O)N[C@@H](Cc2ccccc2)C(N)=O)C1=O | 76 | – | 704 | Emax (Mu-type opioid receptor [2]): 18%; EC50 (Mu-type opioid receptor [4]): 11.3 nM
3 | Cc1cc(O)cc(C)c1C[C@H](N)C(=O)N1CCC[C@@H]1C(=O)N[C@H]1Cc2ccccc2CN(CC(=O)N[C@@H](CCCN2CCC(Cc3ccccc3)CC2)C(=O)N[C@@H](Cc2ccccc2)C(N)=O)C1=O | 85 | – | 162 | Emax (Mu-type opioid receptor [2]): 27%; EC50 (Mu-type opioid receptor [4]): 21 nM
4 | Cc1cc(O)cc(C)c1C[C@H](N)C(=O)N[C@H](CCCNC(=N)N)C(=O)N[C@H]1Cc2ccccc2CN(CCC(=O)N[C@H](CCCN2CCC(Cc3ccccc3)CC2)C(=O)N[C@@H](Cc2ccccc2)C(N)=O)C1=O | 95 | 76 | 178 | EC50 (Mu-type opioid receptor [4]): 14 nM
5 | Cc1cc(O)cc(C)c1C[C@H](N)C(=O)N(CCCCN)CC(=O)N[C@H]1Cc2ccccc2CN(CCC(=O)N[C@@H](CCCN2CCC(Cc3ccccc3)CC2)C(=O)N[C@@H](Cc2ccccc2)C(N)=O)C1=O (H-[Dmt][Nlys][X1][Nva(5-(4-Bn-piperidin-1-yl))]F-NH2) | – | – | – | EC50 (Mu-type opioid receptor [3]; hek293): Not Active; Emax (Mu-type opioid receptor [1]): 15%
6 | Cc1cc(O)cc(C)c1C[C@H](N)C(=O)N[C@H](CCCN1CCC(Cc2ccccc2)CC1)C(=O)N[C@H]1Cc2ccccc2CN(CCC(=O)N[C@@H](CCCN2CCC(Cc3ccccc3)CC2)C(=O)N[C@@H](Cc2ccccc2)C(N)=O)C1=O | – | – | – | Emax (Mu-type opioid receptor [1]): 35%
7 | Cc1cc(O)cc(C)c1C[C@H](N)C(=O)N[C@H](CCCNC(=N)N)C(=O)N[C@H]1Cc2ccccc2CN(CCCC(=O)N[C@@H](CCCN2CCC(Cc3ccccc3)CC2)C(=O)N[C@@H](Cc2ccccc2)C(N)=O)C1=O (H-[Dmt][dR][X2][Nva(5-(4-Bn-piperidin-1-yl))]F-NH2) | 108 | – | – | Emax (Mu-type opioid receptor [2]): 31%
8 | Cc1cc(O)cc(C)c1C[C@H](N)C(=O)N[C@H](CCCNC(=N)N)C(=O)N[C@@H](Cc1ccccc1)C(=O)N(C)[C@H](C)C(=O)N[C@@H](CCCN1CCC(Cc2ccccc2)CC1)C(=O)N[C@@H](Cc1ccccc1)C(N)=O | 111 | 83 | 154 | –
9 | Cc1cc(O)cc(C)c1C[C@H](N)C(=O)N[C@H](CCCNC(=N)N)C(=O)N[C@@H](Cc1ccccc1)C(=O)N(C)CC(=O)N[C@@H](CCCN1CCC(Cc2ccccc2)CC1)C(=O)N[C@H](C(N)=O)C(C)C (H-[Dmt][dR]F[Sar][Nva(5-(4-Bn-piperidin-1-yl))]V-NH2) | 110 | 116 | 59 | –
10 | Cc1cc(O)cc(C)c1C[C@H](N)C(=O)N[C@H](CCCCNC(=N)N)C(=O)N[C@H]1Cc2ccccc2CN(CCC(=O)N[C@@H](CCCN2CCC(Cc3ccccc3)CC2)C(=O)N[C@@H](Cc2ccccc2)C(N)=O)C1=O (H-[Dmt][d(hArg)][X1][Nva(5-(4-Bn-piperidin-1-yl))]F-NH2) | – | – | – | EC50 (Mu-type opioid receptor [3]; hek293): Not Active; Emax (Mu-type opioid receptor [1]): 39%; EC50 (Mu-type opioid receptor [4]): 24 nM
11 | Cc1cc(O)cc(C)c1C[C@H](N)C(=O)N[C@H](CCCNC(=N)N)C(=O)N[C@@H](Cc1ccccc1)C(=O)N(C)[C@@H](C)C(=O)N[C@@H](CCCN1CCC(Cc2ccccc2)CC1)C(=O)N[C@@H](Cc1ccccc1)C(N)=O | 99 | 87 | 92 | EC50 (Mu-type opioid receptor [4]): 17 nM
12 | Cc1cc(O)cc(C)c1C[C@H](N)C(=O)N[C@H](CCCNC(=N)N)C(=O)N[C@@H](Cc1ccccc1)C(=O)NCCC(=O)N[C@@H](CCCN1CCC(Cc2ccccc2)CC1)C(=O)N[C@@H](Cc1ccccc1)C(N)=O (H-[Dmt][dR]F[βAla][Nva(5-(4-Bn-piperidin-1-yl))]F-NH2) | 101 | 53 | – | –
13 | Cc1cc(O)cc(C)c1C[C@H](N)C(=O)N[C@H](CCCNC(=N)N)C(=O)N[C@H]1Cc2ccccc2CN(CCC(=O)N[C@@H](CCCN2CCc3ccccc3C2)C(=O)N[C@@H](Cc2ccccc2)C(N)=O)C1=O | 98 | 60 | 25 | –
14 | Cc1cc(O)cc(C)c1C[C@H](N)C(=O)N[C@H](CCCCN)C(=O)N[C@H]1Cc2ccccc2CN(CCC(=O)N[C@@H](CCCN2CCC(Cc3ccccc3)CC2)C(=O)N[C@@H](Cc2ccccc2)C(N)=O)C1=O (H-[Dmt][dK][X1][Nva(5-(4-Bn-piperidin-1-yl))]F-NH2) | 67 | – | – | EC50 (Mu-type opioid receptor [3]; hek293): Not Active; EC50 (Mu-type opioid receptor [4]): 30 nM
15 | Cc1cc(O)cc(C)c1C[C@H](N)C(=O)N[C@H](CCCNC(=N)N)C(=O)N[C@@H](Cc1ccccc1)C(=O)N(C)CC(=O)N[C@@H](CCCN1CCC(Cc2ccccc2)CC1)C(=O)N[C@@H](Cc1ccccc1)C(N)=O (H-[Dmt][dR]F[Sar][Nva(5-(4-Bn-piperidin-1-yl))]F-NH2) | 97 | 96 | 53 | –
16 | N=C(N)NCCC[C@@H](NC(=O)[C@@H]1Cc2ccc(O)cc2CN1)C(=O)N[C@H]1Cc2ccccc2CN(CCC(=O)N[C@@H](CCCN2CCC(Cc3ccccc3)CC2)C(=O)N[C@@H](Cc2ccccc2)C(N)=O)C1=O (H-[Tic(7-OH)][dR][X1][Nva(5-(4-Bn-piperidin-1-yl))]F-NH2) | 46 | – | 1340 | Emax (Mu-type opioid receptor [2]): 33%
17 | Cc1cc(O)cc(C)c1C[C@H](N)C(=O)N[C@H](CCCNC(=N)N)C(=O)N[C@@H](Cc1ccccc1)C(=O)N(C)CCC(=O)N[C@@H](CCCN1CCC(Cc2ccccc2)CC1)C(=O)N[C@@H](Cc1ccccc1)C(N)=O | – | – | 45 | EC50 (Mu-type opioid receptor [4]): 8.9 nM
18 | Cc1cc(O)cc(C)c1C[C@H](N)C(=O)N[C@H](CCCNC(=N)N)C(=O)N[C@H]1Cc2ccccc2CN(CCC(=O)N[C@@H](CCCN2CCC(Cc3ccccc3)CC2)C(=O)N[C@@H](CC(C)C)C(N)=O)C1=O (H-[Dmt][dR][X1][Nva(5-(4-Bn-piperidin-1-yl))]L-NH2) | 70 | – | – | Emax (Mu-type opioid receptor [2]): 38%
19 | Cc1cc(O)cc(C)c1C[C@H](N)C(=O)N[C@H](CCCNC(=N)N)C(=O)N[C@H]1Cc2ccccc2CN(CCC(=O)N[C@@H](CCCN2CCC(Cc3ccccc3)CC2)C(=O)N[C@H](Cc2ccccc2)C(N)=O)C1=O | 109 | 59 | – | –
20 | Cc1cc(O)cc(C)c1C[C@H](N)C(=O)N[C@H](CCCNC(=N)N)C(=O)N[C@H](Cc1ccccc1)C(=O)N(C)CCC(=O)N[C@@H](CCCN1CCC(Cc2ccccc2)CC1)C(=O)N[C@@H](Cc1ccccc1)C(N)=O | 65 | – | – | EC50 (Mu-type opioid receptor [4]; hek293): 180 nM
21 | Cc1cc(O)cc(C)c1C[C@@H](N)C(=O)N[C@H](CCCNC(=N)N)C(=O)N[C@@H](Cc1ccccc1)C(=O)N(C)CCC(=O)N[C@@H](CCCN1CCC(Cc2ccccc2)CC1)C(=O)N[C@@H](Cc1ccccc1)C(N)=O | 110 | 49 | – | –
22 | Cc1cc(O)cc(C)c1C[C@H](N)C(=O)N[C@H](CCCNC(=N)N)C(=O)N[C@H]1Cc2ccccc2CN(CCC(=O)N[C@@H](CCCN2CCC(Cc3ccccc3)CC2)C(=O)N[C@@H](Cc2ccc(O)cc2)C(N)=O)C1=O (H-[Dmt][dR][X1][Nva(5-(4-Bn-piperidin-1-yl))]Y-NH2) | 88 | 64 | – | –
23 | Cc1cc(O)cc(C)c1C[C@H](N)C(=O)N[C@H](CCCNC(=N)N)C(=O)N[C@H]1Cc2ccccc2CN(CCCC(=O)N[C@@H](CCCN2CCC(Cc3ccccc3)CC2)C(=O)N[C@@H](Cc2c[nH]c3ccccc23)C(N)=O)C1=O (H-[Dmt][dR][X2][Nva(5-(4-Bn-piperidin-1-yl))]W-NH2) | 90 | – | – | Emax (Mu-type opioid receptor [2]): 30%
24 | CC[C@H](C)[C@H](NC(=O)[C@H](CCCN1CCC(Cc2ccccc2)CC1)NC(=O)CCN1Cc2ccccc2C[C@H](NC(=O)[C@@H](CCCNC(=N)N)NC(=O)[C@@H](N)Cc2c(C)cc(O)cc2C)C1=O)C(N)=O (H-[Dmt][dR][X1][Nva(5-(4-Bn-piperidin-1-yl))]I-NH2) | 110 | 49 | – | –
25 | Cc1cc(O)cc(C)c1C[C@H](N)C(=O)N[C@H](CCCNC(=N)N)C(=O)N[C@H]1Cc2ccccc2CN(CCCC(=O)N[C@@H](CCCN2CCC(Cc3ccccc3)CC2)C(=O)N[C@H](C(N)=O)C(C)C)C1=O (H-[Dmt][dR][X2][Nva(5-(4-Bn-piperidin-1-yl))]V-NH2) | 101 | 53 | – | –
26 | Cc1cc(O)cc(C)c1C[C@H](N)C(=O)N[C@H](CCCNC(=N)N)C(=O)N[C@H]1Cc2c(ccc3ccccc23)CN(CCC(=O)N[C@@H](CCCN2CCC(Cc3ccccc3)CC2)C(=O)N[C@@H](Cc2ccccc2)C(N)=O)C1=O | 111 | 60 | 56 | EC50 (Mu-type opioid receptor [4]): 5.3 nM
27 | Cc1cc(O)cc(C)c1C[C@H](N)C(=O)N[C@H](CCCNC(=N)N)C(=O)N[C@H]1Cc2ccccc2CN(CCC(=O)N[C@@H](CCCN2CCC(Cc3ccccc3)CC2)C(=O)N[C@@H](Cc2c[nH]c3ccccc23)C(N)=O)C1=O (H-[Dmt][dR][X1][Nva(5-(4-Bn-piperidin-1-yl))]W-NH2) | 81 | 42 | – | –
28 | Cc1cc(O)cc(C)c1C[C@H](N)C(=O)N[C@H](CCCNC(=N)N)C(=O)N[C@H]1Cc2ccccc2CN(CCC(=O)N[C@@H](CCCN2CCC(Cc3ccccc3)CC2)C(=O)N[C@@H](Cc2ccccc2)C(=O)NCCC(N)=O)C1=O (H-[Dmt][dR][X1][Nva(5-(4-Bn-piperidin-1-yl))]F[βAla]-NH2) | 95 | – | – | Emax (Mu-type opioid receptor [2]): 31%
